Measurements published in paper PMC12930396, “Positive modulators of N-methyl-D-aspartate receptor: structure–activity relationship study on steroidal C-17 and C-20 oxime ethers” (RSC Advances, 2026).
Values after ≈ are worked out from the molar mass of the structure shown. Counter-ions that a name gives are not always drawn. Like-named read-outs stand apart in the source and are kept apart here.

Tests used:
GluN1/GluN2B receptors = target: T1, GluN1/GluN2B receptors (Rattus norvegicus, UniProt P35439+Q00960); assay: Patch-clamp: modulation of glutamate-induced currents of recombinant GluN1/GluN2B receptors expressed in HEK293 cells; type: cell-based; details: mean ± SEM; for h ± SEM (apparent Hill coefficient): concentration-response fit; for EC50: half-maximal potentiation of currents evoked by 1 µM glutamate; for EC50 / Emax: HEK293; for Emax: maximal potentiation of currents evoked by 1 µM glutamate and 30 µM glycine
T1 construct: expressed in transfected cells; host or cells: HEK293 cells (ATCC No. CRL-1573)
T1 sequence (Q00960 27-1482, other chains not shown): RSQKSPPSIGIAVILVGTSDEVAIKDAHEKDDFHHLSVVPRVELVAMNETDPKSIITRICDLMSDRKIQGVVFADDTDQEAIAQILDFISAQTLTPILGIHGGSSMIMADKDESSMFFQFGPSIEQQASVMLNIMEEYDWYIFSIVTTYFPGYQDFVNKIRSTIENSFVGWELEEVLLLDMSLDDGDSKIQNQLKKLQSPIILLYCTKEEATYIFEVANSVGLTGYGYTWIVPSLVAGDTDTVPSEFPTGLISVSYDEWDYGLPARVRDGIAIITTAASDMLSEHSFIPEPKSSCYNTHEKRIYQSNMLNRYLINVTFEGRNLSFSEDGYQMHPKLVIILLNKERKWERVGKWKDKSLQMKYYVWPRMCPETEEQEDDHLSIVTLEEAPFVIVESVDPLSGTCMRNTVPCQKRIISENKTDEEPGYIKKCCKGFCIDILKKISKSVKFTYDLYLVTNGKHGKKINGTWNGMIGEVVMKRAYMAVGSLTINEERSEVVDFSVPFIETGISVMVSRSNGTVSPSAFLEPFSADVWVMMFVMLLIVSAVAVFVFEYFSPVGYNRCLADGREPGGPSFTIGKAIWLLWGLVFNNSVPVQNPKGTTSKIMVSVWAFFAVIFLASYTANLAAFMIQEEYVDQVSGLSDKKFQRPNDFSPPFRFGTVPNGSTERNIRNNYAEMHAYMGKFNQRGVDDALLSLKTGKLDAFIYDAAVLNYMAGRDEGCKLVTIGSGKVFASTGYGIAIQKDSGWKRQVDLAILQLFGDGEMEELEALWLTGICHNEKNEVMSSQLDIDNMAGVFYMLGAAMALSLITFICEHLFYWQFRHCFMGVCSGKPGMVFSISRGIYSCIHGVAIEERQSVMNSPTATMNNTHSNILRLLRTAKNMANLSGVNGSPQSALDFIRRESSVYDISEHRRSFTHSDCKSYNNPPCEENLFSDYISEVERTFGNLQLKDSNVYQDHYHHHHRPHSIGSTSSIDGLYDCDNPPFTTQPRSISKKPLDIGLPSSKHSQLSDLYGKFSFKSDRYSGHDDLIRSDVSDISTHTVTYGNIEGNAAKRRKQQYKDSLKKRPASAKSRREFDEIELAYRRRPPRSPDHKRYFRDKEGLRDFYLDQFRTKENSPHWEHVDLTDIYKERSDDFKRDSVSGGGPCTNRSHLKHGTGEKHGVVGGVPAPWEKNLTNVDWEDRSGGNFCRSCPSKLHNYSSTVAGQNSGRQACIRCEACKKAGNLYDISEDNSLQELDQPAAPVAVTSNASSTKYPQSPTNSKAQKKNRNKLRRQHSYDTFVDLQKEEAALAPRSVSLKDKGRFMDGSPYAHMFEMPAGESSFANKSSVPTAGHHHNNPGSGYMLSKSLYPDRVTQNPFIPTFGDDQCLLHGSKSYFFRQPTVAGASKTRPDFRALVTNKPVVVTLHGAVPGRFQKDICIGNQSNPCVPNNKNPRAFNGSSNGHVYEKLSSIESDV
Experimental: To investigate the effect of compounds 11–23 on the activity of NMDARs, electrophysiological measurements were performed on HEK293 cells that were co-transfected with cDNAs containing genes encoding for the rat GluN1-1a and GluN2B subunits. The degree of modulation (E; potentiation/inhibition) for the newly synthesized compounds was determined using the following formula: [drawing 1] where Ie is the value of the current amplitude during glutamate and compound coapplication, and Ia is the current amplitude value for glutamate application. […] The results are presented as mean ± standard error of the mean (SEM), with n equal to the number of independent measurements. One-way analysis of variance (ANOVA) was used for multiple comparisons (unless otherwise stated, a value of P ≤ 0.05 was used for the determination of significance).
We have evaluated the relationship between oxime derivatives 11–23 and their modulatory effect on recombinant GluN1/GluN2B receptors. Due to the […] effect of neurosteroid-based PAMs at NMDARs[20,44]
HEK293 cells (American Type Culture Collection, ATCC No. CRL-1573, Rockville, MD, USA) were cultured in Opti-MEM I (Invitrogen, Carlsbad, CA, USA) supplemented with 5% fetal bovine serum (FBS; PAN Biotech, Aidenbach, Germany) at 37 °C in 5% CO2. 24 h before transfection, HEK293 cells were plated in 24-well plates at a density of 2 × 10^5 cells per well. The next day, the cells were transfected with cDNA encoding rat GluN1-1a (GluN1; GenBank accession number U08261)[56] and GluN2B (GenBank accession number M91562)[57] subunits (in the pCI-neo expression vector), along with green fluorescent protein (GFP; in the pQBI 25 vector, Takara, Tokyo, Japan). Briefly, equal amounts (200 ng) of cDNAs encoding GluN1-1a, GluN2B, and GFP were mixed with 0.6 µl of Matra-A reagent (IBA, Gottingen, Germany) in 50 µL of Opti-MEM I and added to confluent HEK293 cells cultured in 24-well plates. After trypsinization, the cells were resuspended in Opti-MEM I containing 1% FBS, supplemented with 20 mM MgCl2, 1 mM D,L-2-amino-5-phosphonovaleric acid, 3 mM kynurenic acid, and 1 µM ketamine, and plated on 30 mm glass coverslips coated with collagen and poly-L-lysine. Transfected cells were identified by GFP epifluorescence. Electrophysiology experiments were performed 24–48 h after transfection.
Whole-cell current recordings, voltage-clamped at a holding potential of −60 mV, were performed at room temperature using a patch-clamp amplifier (Axopatch 200B; Molecular Devices, Sunnyvale, CA, USA) after capacitance and series resistance (<10 MΩ) compensation (80–90%). NMDAR current responses were low-pass filtered at 2 kHz, digitally sampled at 5 kHz, and analysed using pClamp software (version 10.6; Molecular Devices). Patch pipettes (3–5 MΩ), pulled from borosilicate glass, were filled with an intracellular solution (ICS) containing (in mM): 15 CsCl, 10 BAPTA, 3 MgCl2, 1 CaCl2, 120 gluconic acid, 10 HEPES, and 2 ATP-Mg salt (pH adjusted to 7.2 with CsOH). The extracellular solution (ECS) contained (in mM): 160 NaCl, 2.5 KCl, 0.2 EDTA, 10 glucose, 10 HEPES, and 0.7 CaCl2 (pH adjusted to 7.3 with NaOH). NMDAR responses were induced by 1 µM glutamate and 30 µM glycine. 1% DMSO was present in all control and testing solutions. Solution applications were performed using a microprocessor-controlled multibarrel fast-perfusion system with a solution exchange rate around the cells of ∼10 ms.[58]

in vitro [1] = details: for half-life at 10 µM: rat, microsomes
Experimental: The reactions were terminated by the addition of four volumes of ice-cold methanol, mixed vigorously, and left at −20 °C for 1h. After that, the samples were centrifuged and the supernatants were analysed by means of ECHO-MS® System (Sciex, Framingham, MA, USA). Zero time points were prepared by adding ice-cold methanol to the mixture of the compound with cofactors before the addition of microsomes. […] Intrinsic clearance (CLint) was calculated using the following formula: [drawing 4] where V is the incubation volume per milligram of microsomal protein (µL mg^−1) and t1/2 is the microsomal half-life.

in vitro [2] = details: for PAMPA permeability Retention (mass retention): 5 h, 100 µM; for PAMPA permeability Retention (mass retention) / Papp at 5 h, 100 µM: pH 7.4; for Papp at 5 h, 100 µM: PAMPA
Experimental: Permeability was quantified using permeability coefficients (Pe) and mass retention, the latter representing the proportion of compound retained in the membrane.
Permeation experiments were conducted in polystyrene 96-well filter plates with PVDF membrane pre-coated with structured layers of phospholipids (Corning Gentest™) according to the manufacturer's instructions. Briefly, the plate was warmed to room temperature, and meanwhile, the solutions of the compounds were diluted from 10 mM DMSO stocks to TRIS–HCl buffer pH 7.4 to reach a 100 µM final concentration. The DMSO concentration in the samples was 1%. Then, 300 µL of these solutions were transferred into the donor (receiver) plate wells, and 200 µL of the (TRIS) buffer was added to the acceptor (filter) plate wells. The filter plate and receiver plate were assembled and incubated for 5 h on an orbital shaker (300 rpm). After this, the concentration of the tested substances in both the donor and acceptor compartments was determined with use of LC/MS. Liquid chromatography was performed using an ExionLC AD pump and autosampler from Sciex (Framingham, MA, USA). […] The mobile phase flow rate was 300 µL min^−1. The column Synergi Fusion-RP from Phenomenex (Torrance, CA, USA) was used and was kept at 40 °C during the analysis.

[3] = Thermodynamic solubility in PBS pH 7.4; type: physicochemical; details: 20 °C, pH 7.4, aqueous buffer, thermodynamic from solid
Experimental: The reference samples were prepared as follows: a weight corresponding to 2.5 µmol was dissolved in 250 µL of DMSO, resulting in a concentration of 10 mM stock solution. Each calibration level standard was prepared by diluting the stock solution in a mixture of PBS and acetonitrile (50 : 50 v/v). The samples for testing were prepared as follows: the volume of 1000 µL of PBS was added to the testing tube containing a weight of sample corresponding to 0.4 mM. The mixture was shaken at 1000 rpm at 20 °C for 24 h. The mixture was then filtered using a syringe polypropylene 0.45 µm filter. Samples and calibration standards are prepared using an automated system of a robotic arm (PAL-RTC, Switzerland). Then, the sample was analysed on chromatographic system (Vanquish UHPLC, Thermo Fisher Scientific, Germany) connected to the diode array detector and consequently to the charged aerosol detector (both Vanquish, Thermo Fisher Scientific, Germany), Thermo Scientific Accucore C8 (100 × 3 mm; 2.6 µm) column, using gradient elution with acetonitrile/methanol/5 mM formate buffer (pH = 3.00); flow: 1.0 cm^3 min^−1; column temperature: 40 °C; CAD temperature: 30 °C; sample volume: 5 mm^3.

Stability in rat plasma = type: in vitro ADME
Experimental: Compounds were prepared as 1.6 mg mL^−1 stock solutions in methanol. Then, 20 µL of stock solution was added to 1000 µL of rat plasma (BioIVT, Cat. No. RAT00PLLH-0102307), maintained at 37 °C. Aliquots (50 µL) withdrawn at 0, 8, and 24 h were analyzed by HPLC. An aliquot of plasma was extracted with methanol (450 µL) containing an internal standard, and the solution was vortexed (20 s) and centrifuged at 13 500 rpm for 10 min. The supernatant was transferred to an autosampler vial, and 10 µL was injected into an LC-MS system. The samples were analyzed using an Agilent 6230 TOF LC/MS. Samples were separated on a Waters ACQUITY UPLC CSH Phenyl-Hexyl column (100 × 2.1, 130 Å, 1.7 µm) at a flow rate of 0.3 mL min^−1. […]. The temperature, the flow rate of the nitrogen drying gas, the pressure of the nitrogen nebulizing gas, and the flow rate of the sheath gas were set at 325 °C, 10 L min^−1, 40 psi, […], and 11 L min^−1, respectively. Results are represented as a percentage of the compound remaining in spiked plasma.

NMDA receptors = details: cited from earlier work; for Activity at NMDARs: C-17 ketone steroids
[4] = Solubility PBS, pH 7.4 (thermodynamic)
[5] = PBS, PBS pH 7.4, 20 °C, 24 h, read-out: Solubility PBS, pH 7.4 (thermodynamic)

SMILES | h ± SEM (apparent Hill coefficient) (GluN1/GluN2B receptors) | EC50 (GluN1/GluN2B receptors) | Emax (GluN1/GluN2B receptors) | half-life at 10 µM (in vitro [1]; pH 7.4) | PAMPA permeability Retention (mass retention) (in vitro [2]) | solubility thermodynamic at 24 h [3, 4] | Stability in rat plasma (% remaining) 8 h (Stability in rat plasma; rat, plasma) | Stability in rat plasma (% remaining) 24 h (Stability in rat plasma; rat, plasma) | also measured
CCO/N=C(\C)[C@H]1CCC2C3CC=C4C[C@@H](OC(=O)CCC(=O)O)CC[C@]4(C)C3CC[C@@]21C (stereo partly drawn) [Compound 22, 20-Oxo-pregn-5-en-3β-yl hemisuccinate O-ethyloxime] | 1.3 ± 0.1 | 7 ± 1.1 µM | 340 ± 22% | 52.6 ± 3.7 min | 96% | 22 ± 1 µM |  |  | Stability in rat microsomes Clint (in vitro [1]): 26.3 µlmin^−1mg; Papp at 5 h, 100 µM (in vitro [2]): 1.58 ×10⁻⁶ cm/s
CC(=O)[C@H]1CC[C@H]2[C@@H]3CC=C4C[C@@H](OC(=O)CCCCC(=O)O)CC[C@]4(C)[C@H]3CC[C@]12C [20-Oxo-PE-hAdi, 20-Oxo-pregn-5-en-3β-yl hemiadipate, reference compound] |  |  |  |  |  | 20 ± 2 µM (≈ 8.89 µg/mL) | 11 ± 0 % remaining | 2 ± 0 % remaining | 
C/C(=N\O)[C@H]1CCC2C3CC=C4C[C@@H](OC(=O)CCCC(=O)O)CC[C@]4(C)C3CC[C@@]21C (stereo partly drawn) [Compound 11, 20-Oxo-pregn-5-en-3β-yl 3-hemiglutarate 20-oxime] | 1.5 ± 0.1 | 7.9 ± 2.1 µM | 270 ± 35% | 58.6 ± 18.7 min | 87% |  | 69.9 ± 6.0 % remaining | 58.1 ± 8.1 % remaining | Stability in rat microsomes Clint (in vitro [1]): 23.6 µlmin^−1mg; PAMPA permeability (in vitro [2]): comparable to or greater than that of verapamil; Papp at 5 h, 100 µM (in vitro [2]): 155 ×10⁻⁶ cm/s
C[C@]12CC[C@H](O)CC1=CC[C@@H]1[C@@H]2CC[C@]2(C)C(=O)CC[C@@H]12 [dehydroepiandrosterone, 3β-hydroxy-androst-5-en-17-one] |  |  |  |  |  |  |  |  | Activity at NMDARs (NMDA receptors): inactive
CC(=O)[C@H]1CC[C@H]2[C@@H]3CC[C@@H]4C[C@H](OS(=O)(=O)O)CC[C@]4(C)[C@H]3CC[C@]12C [PAS, 20-oxo-5β-pregnan-3α-yl sulfate] |  |  |  |  |  |  |  |  | IC50 (NMDA receptors; in Fig. 1, read-out: IC50, negative allosteric modulation of NMDA receptors): 24.6 µM
CCO/N=C(\C)[C@H]1CCC2C3CC=C4C[C@@H](OC(=O)CCCCC(=O)O)CC[C@]4(C)C3CC[C@@]21C (stereo partly drawn) [Compound 23, 20-Oxo-pregn-5-en-3β-yl hemiadipate O-ethyloxime] | 1.7 ± 0.1 | 7.5 ± 1.1 µM | 451 ± 79% | > 60 min | 100% | 21 ± 1 µM (≈ 10.2 µg/mL) |  |  | Metabolic stability in rat liver microsomes (in vitro [1]; 1 h, 10 µM, pH 7.4): no detectable metabolism after 60 min
CCO/N=C1\CCC2C3CC=C4C[C@@H](OC(=O)CCCC(=O)O)CC[C@]4(C)C3CC[C@]12C (stereo partly drawn) [Compound 15, 17-Oxo-androst-5-en-3β-yl hemiglutarate O-ethyloxime] | 1.5 ± 0.1 | 22.7 ± 3.1 µM | 441 ± 76% | > 60 min | 80% |  | 82.1 ± 7.5 % remaining | 69.9 ± 5.0 % remaining | 
CC(=O)[C@H]1CC[C@H]2[C@@H]3CC=C4C[C@@H](OC(=O)CCCC(=O)O)CC[C@]4(C)[C@H]3CC[C@]12C [20-Oxo-PE-hGlu, 20-Oxo-pregn-5-en-3β-yl hemiglutarate, reference compound] |  |  |  |  |  |  |  |  | solubility thermodynamic at 24 h [3, 5]: 86 ± 1 µM (≈ 37 µg/mL); Stability in rat plasma (% remaining) 8 h (Stability in rat plasma; rat plasma, 37 °C): 44 ± 3 % remaining; Stability in rat plasma (% remaining) 24 h (Stability in rat plasma; rat plasma, 37 °C): 21 ± 1 % remaining
C[C@]12CC[C@H](OS(=O)(=O)O)CC1=CCC1C2CC[C@]2(C)C(=O)CCC12 (some centres unmarked) [dehydroepiandrosterone sulfate] |  |  |  |  |  |  |  |  | Activity at NMDARs (NMDA receptors): inactive
CC(=O)[C@H]1CC[C@H]2[C@@H]3CC=C4C[C@@H](OC(=O)CCC(=O)O)CC[C@]4(C)[C@H]3CC[C@]12C [20-Oxo-PE-hSuc, 20-Oxo-pregn-5-en-3β-yl hemisuccinate, reference compound] |  |  |  |  |  |  |  |  | solubility thermodynamic at 24 h [3, 5]: 277 ± 1 µM; Stability in rat plasma (% remaining) 8 h (Stability in rat plasma; rat plasma, 37 °C): 69 ± 1 % remaining; Stability in rat plasma (% remaining) 24 h (Stability in rat plasma; rat plasma, 37 °C): 50 ± 2 % remaining
